Experimental data taken from paper PMC4509505 (Journal of functional foods, 2015).
Like-named read-outs stand apart in the source and are kept apart here.

Tests used:
[1] = assay type: in vivo, male CF-1 mice; settings: for AUC0→720min / Cmax / Tmax: EGCG 100 mg/kg i.g.
[2] = biological target: T1, catechol-O-methyl transferase (COMT) (Mus musculus, UniProt O88587); assay: Fraction of unmethylated total EGCG; assay type: in vivo, male CF-1 mice
T1 sequence (O88587 1-265): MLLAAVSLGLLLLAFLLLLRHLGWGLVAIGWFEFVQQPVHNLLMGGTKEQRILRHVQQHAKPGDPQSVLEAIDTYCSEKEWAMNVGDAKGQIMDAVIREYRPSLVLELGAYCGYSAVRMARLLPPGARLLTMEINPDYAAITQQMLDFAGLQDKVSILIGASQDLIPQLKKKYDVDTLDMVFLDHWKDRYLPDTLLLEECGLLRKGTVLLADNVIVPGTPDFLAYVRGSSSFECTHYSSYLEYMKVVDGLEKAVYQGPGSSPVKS

[3] = tested on: human lung cancer cells; settings: human lung cancer cells in vitro; ref Forester & Lambert, 2014; cited from earlier work
[4] = tested on: murine lung cancer cells; settings: murine lung cancer cells in vitro; ref Forester & Lambert, 2014; cited from earlier work
[5] = tested on: COMT; settings: ref Wang, Heber, & Henning, 2012; cited from earlier work

O=C(O[C@@H]1Cc2c(O)cc(O)cc2O[C@@H]1c1cc(O)c(O)c(O)c1)c1cc(O)c(O)c(O)c1 [EGCG, (−)-epigallocatechin-3-gallate]
AUC0→720min ([1]; Cecum, TOL (+) 30 mg/kg i.g.): 39152.8 ± 8338.2 (nmol/g)•min | Cmax ([1]; Cecum, TOL (+) 30 mg/kg i.g.): 97.7 ± 19.4 nmol/g | Tmax ([1]; Cecum, TOL (+) 30 mg/kg i.g.): 7.555 ± 2.118 h | AUC0→720min ([1]; Cecum, TOL (−)): 41580.2 ± 10560.6 (nmol/g)•min | Cmax ([1]; Cecum, TOL (−)): 117.7 ± 31.7 nmol/g | Tmax ([1]; Cecum, TOL (−)): 5.013 ± 1.66 h | AUC0→720min ([1]; Colon, TOL (+) 30 mg/kg i.g.): 18631.3 ± 2844.0 (nmol/g)•min | Cmax ([1]; Colon, TOL (+) 30 mg/kg i.g.): 37.6 ± 5.8 nmol/g | Tmax ([1]; Colon, TOL (+) 30 mg/kg i.g.): 4 ± 1 h | AUC0→720min ([1]; Colon, TOL (−)): 26301.3 ± 8881.3 (nmol/g)•min | Cmax ([1]; Colon, TOL (−)): 63.8 ± 9.6 nmol/g | Tmax ([1]; Colon, TOL (−)): 7 ± 2.645 h | AUC0→720min ([1]; Kidney, TOL (+) 30 mg/kg i.g.): 461.7 ± 358.5 (nmol/g)•min | Cmax ([1]; Kidney, TOL (+) 30 mg/kg i.g.): 2.0 ± 1.7 nmol/g | Tmax ([1]; Kidney, TOL (+) 30 mg/kg i.g.): 4.445 ± 3.783 h | AUC0→720min ([1]; Kidney, TOL (−)): 95.7 ± 5.6 (nmol/g)•min | Cmax ([1]; Kidney, TOL (−)): 0.4 ± 0.1 nmol/g | Tmax ([1]; Kidney, TOL (−)): 6.028 ± 3.44 h | AUC0→720min ([1]; Liver, TOL (+) 30 mg/kg i.g.): 1324.8 ± 390.5 (nmol/g)•min | Cmax ([1]; Liver, TOL (+) 30 mg/kg i.g.): 2.7 ± 0.7 nmol/g | Tmax ([1]; Liver, TOL (+) 30 mg/kg i.g.): 3.528 ± 1.792 h | AUC0→720min ([1]; Liver, TOL (−)): 871.5 ± 401.9 (nmol/g)•min | Cmax ([1]; Liver, TOL (−)): 2.2 ± 0.9 nmol/g | Tmax ([1]; Liver, TOL (−)): 3.333 ± 0.918 h | AUC0→720min ([1]; Lung, TOL (+) 30 mg/kg i.g.): 1002.1 ± 682.1 (nmol/g)•min | Cmax ([1]; Lung, TOL (+) 30 mg/kg i.g.): 23.3 ± 20.8 nmol/g | Tmax ([1]; Lung, TOL (+) 30 mg/kg i.g.): 2.792 ± 1.893 h | AUC0→720min ([1]; Lung, TOL (−)): 203.3 ± 156.4 (nmol/g)•min | Cmax ([1]; Lung, TOL (−)): 1.4 ± 1.2 nmol/g | Tmax ([1]; Lung, TOL (−)): 2.355 ± 1.38 h | AUC0→720min ([1]; Plasma, TOL (+) 30 mg/kg i.g.): 154887.7 ± 39082.1 nM·min | Cmax ([1]; Plasma, TOL (+) 30 mg/kg i.g.): 1530 ± 345 nM | Tmax ([1]; Plasma, TOL (+) 30 mg/kg i.g.): 0.208 ± 0.0567 h | AUC0→720min ([1]; Plasma, TOL (−)): 245330.8 ± 74700.1 nM·min | Cmax ([1]; Plasma, TOL (−)): 1190 ± 315 nM | Tmax ([1]; Plasma, TOL (−)): 0.278 ± 0.15 h | Tmax ([1]; Urine (pooled), TOL (+) 30 mg/kg i.g.): 0.333 h | Tmax ([1]; Urine (pooled), TOL (−)): 0.083 h | unmethylated EGCG as fraction of the total ([2]; plasma, EGCG 100 mg/kg i.g. with co-administration of TOL 30 mg/kg i.g.): 87.9% | unmethylated EGCG as fraction of the total ([2]; plasma, mice treated with EGCG 100 mg/kg i.g. only): 63.4% | unmethylated EGCG as fraction of the total ([2]; urine, EGCG 100 mg/kg i.g. plus TOL 30 mg/kg i.g.): 81.8% | unmethylated EGCG as fraction of the total ([2]; urine, mice treated with EGCG 100 mg/kg i.g. only): 29.2%

Cc1ccc(C(=O)c2cc(O)c(O)c([N+](=O)[O-])c2)cc1 [TOL, tolcapone, reference compound]
effect on Cmax of unmethylated, unconjugated EGCG ([1]; cecum or colon, TOL co-treatment vs EGCG only): did not affect | effect on AUC0→720min of unmethylated, unconjugated EGCG ([1]; liver, kidney, lung and urine, TOL co-administration vs EGCG only): tended to increase | effect on AUC0→720min of unmethylated, unconjugated EGCG ([1]; plasma, cecum and colon, TOL co-treatment vs EGCG only): nor did it affect | effect on Cmax of unmethylated, unconjugated EGCG ([1]; plasma, liver, kidney, lung and urine, TOL co-administration vs EGCG only): tended to increase | effect on levels of unmetabolised (unmethylated, unconjugated) EGCG ([1]; plasma, co-treatment TOL 30 mg/kg + EGCG 100 mg/kg i.g. vs EGCG only (Fig. 2)): did not significantly affect | growth inhibition in combination with EGCG [3]: synergistically inhibited | growth inhibition in combination with EGCG [4]: synergistically inhibited

CCN(CC)C(=O)/C(C#N)=C/c1cc(O)c(O)c([N+](=O)[O-])c1 [entacapone]
growth inhibition in combination with EGCG [3]: synergistically inhibited | growth inhibition in combination with EGCG [4]: synergistically inhibited

O=c1c(O)c(-c2ccc(O)c(O)c2)oc2cc(O)cc(O)c12 [quercetin]
increase of the levels of EGCG found in the lung and kidney [5]: greater than 2 fold
